Values quoted from earlier work in patent US8691290B2 (priority 2006, dated 2014).

System: polymorphonuclear leukocytes (PMN) cells
Conditions: S. aureus with various concentrations of PVP-I, 6 hours

polyvinylpyrolodone-iodine [PVP-I]
TNF-α release from PMN cells: released increasing amounts of TNF-α as PVP-I is diluted
